Results on 17 molecules are retold here after PMC11396667, “Design, Synthesis, and Anticancer and Antibacterial Activities of Quinoline-5-Sulfonamides” (Molecules, 2024).

Bounds are passed on as bounds.

The test system of data set [1] is C-32 (human amelanotic melanoma) cells. Description: WST-1 cell viability assay, C-32. It counts as cell-based. To be noted: WST-1, 72 h exposure, ± SD, n = 6. The procedure:
(§1) The synthesized compounds were tested using three cancer cell lines—human amelanotic melanoma (C-32), human breast adenocarcinoma (MDA-MB-231), and human lung adenocarcinoma (A549)—and, for comparison, normal human dermal fibroblasts (HFF-1). The WST-1 (water-soluble tetrazole salt) assay was used to evaluate the effect of the synthesized compounds on the viability of cultured cells.
(§2) Compounds were evaluated for their antiproliferative activity using three cultured cell lines: C-32 (human amelanotic melanoma, ATCC, Manassas, VA, USA), A549 (human lung adenocarcinoma, ATCC, Manassas, VA, USA), MDA-MB-231 (human breast adenocarcinoma derived from metastatic site: pleural effusion, ATCC, Manassas, VA, USA), together with HFF-1 (normal human dermal fibroblasts, ATCC, Manassas, VA, USA). The cultured cells were kept at 37 °C and 5% CO2.
(§3) Cells were seeded in 96-well plates at 5000/well in 100 μL of medium. After 24 h of incubation, the medium was replaced with a new one with the addition of the test substance. After 72 h, the following tests were performed: with crystal violet (determination of the number of adherent cells in the culture), the WST-1 test (determination of the relative number of living cells and their metabolic activity), and the LDH test (determination of the relative number of dead cells in cultures—cytotoxicity of the tested substance).
(§4) WST-1 test: The WST-1 test (Roche Diagnostics, Mannheim, Germany) allows one to determine the relative number of cells in cultures. Absorbance is directly proportional to the number of cells and their metabolic activity. The absorbance measurement is performed at λ = 450 nm (reference wave 600 nm).

Data set [2] relates to A549 (human lung adenocarcinoma) cells. Briefly: WST-1 cell viability assay, A549. It counts as cell-based. Particulars: WST-1, 72 h exposure, ± SD, n = 6. How it is done: as §1, §2, §3, §4
The subject of data set [3] is MDA-MB-231 (human breast adenocarcinoma) cells. Description: WST-1 cell viability assay, MDA-MB-231. It counts as cell-based. Particulars: WST-1, 72 h exposure, ± SD, n = 6. How it is done: as §1, §2, §3, §4
Data set [4] concerns HFF-1 (normal human dermal fibroblasts). Description: WST-1 cell viability assay, normal HFF-1. It counts as cell-based. Particulars: ± SD, n = 6. The procedure: as §1, §2, §3, §4
Data set [5] has as its system S. aureus ATCC 29213. Description: MTT assay of bacterial respiratory activity. It is filed as cell-based, Staphylococcus aureus. To be noted: S. aureus ATCC 29213. From the text: The MTT assay can be used to assess cell growth by measuring respiration. Bacterial cell respiratory activity (which is ultimately reflected in their viability) of less than 70% after exposure to the MIC values for each test compound is considered as a positive result for this test. This low level of cellular oxidative metabolism indicates inhibition of cell growth by inhibition of respiration. The lowest multiples of the MIC values by which inhibition of S. aureus ATCC 29213 viability [%] greater than 70% was achieved are shown in Table 4. […] Therefore, the antibacterial activity of the discussed compounds cannot be explained solely on the basis of respiration inhibition, so it is very difficult to draw a conclusion regarding the actual mechanism of action, since 8-HQs are multi-target agents, i.e., they affect several different targets at once (as discussed in the section dedicated to anticancer activity), which subsequently leads to the death of the treated resistant microorganisms.
Compounds were prepared as previously stated and diluted in CaMH broth for S. aureus to achieve the desired final concentrations. S. aureus bacterial suspension in sterile distilled water at 0.5 McFarland was diluted 1:3. Inocula were added to each well by multi-inoculator. Diluted mycobacteria in broth free from inhibiting compounds were used as the growth control. All compounds were prepared in duplicate. Plates were incubated at 37 °C for 24 h for S. aureus. After the incubation period, 10% well volume of MTT (3-(4,5-dimethylthiazol-2-yl)-2,5-diphenyltetrazolium bromide) reagent (Sigma) was mixed into each well and incubated at 37 °C 1 h for S. aureus. Then, 100 µL of 17% sodium dodecyl sulphate in 40% dimethylformamide was added to each well. The plates were read at 570 nm. The absorbance readings from the cells grown in the presence of the tested compounds were compared with uninhibited cell growth to determine the relative percent inhibition. The percent inhibition was determined through MTT assay. The percent viability is calculated through the comparison of a measured value and that of the uninhibited control: % viability = OD570E/OD570P × 100, where OD570E is the reading from the compound-exposed cells, while OD570P is the reading from the uninhibited cells (positive control). Cytotoxic potential is determined by a percent viability of <70% [81, 82].

As for `C#CCNS(=O)(=O)c1ccc(OC)c2ncccc12` [6a, 8-Methoxy-N-(prop-2-yn-1-yl)quinoline-5-sulfonamide], the melting point was in the range of 161 to 163 °C. The same molecule displayed an IC50 in data set [1] (Homo sapiens) of over 100 µM. Besides, the IC50 in data set [2] (Homo sapiens, A549) is over 100 µM. In data set [3] (Homo sapiens, MDA-MB-231), the IC50 is over 100 µM.
In turn, `C#CC(C)(C)NS(=O)(=O)c1ccc(OC)c2ncccc12` [6b, 8-Methoxy-N-(1,1-dimethyloprop-2-yn-1-yl)quinoline-5-sulfonamide] displayed a melting point of 217 to 219 °C. In addition, in data set [1] (Homo sapiens), the concentration for half-maximal inhibition (IC50) turned out to be 40.6 ± 4.9 µM. This molecule also displayed an IC50 in data set [2] (Homo sapiens, A549) of over 100 µM. Moreover, the IC50 in data set [3] (Homo sapiens, MDA-MB-231) was over 100 µM.
For the molecule `C#CCN(C)S(=O)(=O)c1ccc(OC)c2ncccc12` [6c, 8-Methoxy-N-methyl-N-(prop-2-yn-1-yl)quinoline-5-sulfonamide], the melting point was 112 to 114 °C. The same molecule showed a half-inhibitory concentration (IC50) in data set [1] (Homo sapiens) of 70.1 ± 8.4 µM. This molecule also yielded an IC50 in data set [2] (Homo sapiens, A549) of over 100 µM. For the same molecule, the half-maximal inhibitory concentration (IC50) in data set [3] (Homo sapiens, MDA-MB-231) is over 100 µM.
Take `C#CCOc1ccc(NS(=O)(=O)c2ccc(OC)c3ncccc23)cc1` [6d, 8-Methoxy-N-[4-(prop-2-yn-1-yloxy)phenyl]quinoline-5-sulfonamide]: the melting point was 217 to 219 °C. Further, the IC50 in data set [1] (Homo sapiens) is 86.4 ± 3.9 µM. For the same molecule, in data set [2] (Homo sapiens, A549), the IC50 is over 100 µM. The same molecule had an IC50 in data set [3] (Homo sapiens, MDA-MB-231) of over 100 µM.
`C#CCOc1cccc(NS(=O)(=O)c2ccc(OC)c3ncccc23)c1` [6e, 8-Methoxy-N-[3-(prop-2-yn-1-yloxy)phenyl]quinoline-5-sulfonamide] yielded a melting point of 190 to 192 °C. The molecule also gave an IC50 in data set [1] (Homo sapiens) of 32.2 ± 4.8 µM. Moreover, the IC50 in data set [2] (Homo sapiens, A549) is over 100 µM. In addition, the half-maximal inhibitory concentration (IC50) in data set [3] (Homo sapiens, MDA-MB-231) is over 100 µM.
Regarding `C#CCOc1ccccc1NS(=O)(=O)c1ccc(OC)c2ncccc12` [6f, 8-Methoxy-N-[2-(prop-2-yn-1-yloxy)phenyl]quinoline-5-sulfonamide], the melting point is 187 to 189 °C. The molecule further gave an IC50 in data set [1] (Homo sapiens) of 27.7 ± 2.2 µM. For the same molecule, the IC50 in data set [2] (Homo sapiens, A549) was over 100 µM. Further, the IC50 in data set [3] (Homo sapiens, MDA-MB-231) is over 100 µM.
Consider `C=CCn1cc(CNS(=O)(=O)c2ccc(OC)c3ncccc23)nn1` [7a, N-[(1-Allyl-1H-1,2,3-triazol-4-yl)methyl]-8-methoxyquinoline-5-sulfonamide], for which the melting point was 159 to 161 °C. Further, the IC50 in data set [1] (Homo sapiens) was over 100 µM. In data set [2] (Homo sapiens, A549), the half-maximal inhibitory concentration (IC50) was over 100 µM. For the same molecule, the IC50 in data set [3] (Homo sapiens, MDA-MB-231) is over 100 µM.
`COc1ccc(S(=O)(=O)NCc2cn(Cc3ccccc3)nn2)c2cccnc12` [7b, N-[(1-Benzyl-1H-1,2,3-triazol-4-yl)methyl]-8-methoxyquinoline-5-sulfonamide] registered a melting point of 170 to 172 °C. The IC50 in data set [1] (Homo sapiens) is over 100 µM. This molecule yielded an IC50 in data set [2] (Homo sapiens, A549) of over 100 µM. In data set [3] (Homo sapiens, MDA-MB-231), this molecule had an IC50 of over 100 µM.
For `COc1ccc(S(=O)(=O)NCc2cn(Cc3ccc(F)cc3)nn2)c2cccnc12` [7c, N-{[1-(4-Fluorobenzyl)-1H-1,2,3-triazol-4-yl]methyl}-8-methoxyquinoline-5-sulfonamide], the melting point was in the range of 194 to 196 °C. For the same molecule, the 50% inhibitory concentration (IC50) in data set [1] (Homo sapiens) came out at 89 ± 3.5 µM. Moreover, the IC50 in data set [2] (Homo sapiens, A549) was over 100 µM. This molecule also had an IC50 in data set [3] (Homo sapiens, MDA-MB-231) of over 100 µM.
`COc1ccc(S(=O)(=O)NCc2cn(-c3ccc(Cl)cc3)nn2)c2cccnc12` [7d, N-{[1-(4-Chlorophenyl)-1H-1,2,3-triazol-4-yl]methyl}-8-methoxyquinoline-5-sulfonamide]: the melting point is 224 to 226 °C. The molecule also yielded an IC50 in data set [1] (Homo sapiens) of over 100 µM. This molecule also came in with an IC50 in data set [2] (Homo sapiens, A549) of over 100 µM. The molecule further gave an IC50 in data set [3] (Homo sapiens, MDA-MB-231) of over 100 µM.
In the case of `COc1ccc(S(=O)(=O)NCc2cn(CSc3ccccc3)nn2)c2cccnc12` [7e, N-({1-[(Phenylthio)methyl]-1H-1,2,3-triazol-4-yl}methyl)-8-methoxyquinoline-5-sulfonamide], the melting point lay in the range of 205 to 207 °C. In data set [1] (Homo sapiens), the IC50 was over 100 µM. In addition, the IC50 in data set [2] (Homo sapiens, A549) was over 100 µM. The same molecule showed an IC50 in data set [3] (Homo sapiens, MDA-MB-231) of 72.2 ± 3.6 µM.
Molecule `COc1ccc(S(=O)(=O)NC(C)(C)c2cn(Cc3ccccc3)nn2)c2cccnc12` [7f, N-[2-(1-Benzyl-1H-1,2,3-triazol-4-yl)propan-2-yl]-8-methoxyquinoline-5-sulfonamide] gave a melting point of 153 to 155 °C. The same molecule displayed an IC50 in data set [1] (Homo sapiens) of over 100 µM. Further, the IC50 in data set [2] (Homo sapiens, A549) is over 100 µM. Further, the concentration for half-maximal inhibition (IC50) in data set [3] (Homo sapiens, MDA-MB-231) is over 100 µM.
As for `COc1ccc(S(=O)(=O)N(C)Cc2cn(Cc3ccccc3)nn2)c2cccnc12` [7g, N-Methyl-N-[(1-benzyl-1H-1,2,3-triazol-4-yl)methyl]-8-methoxyquinoline-5-sulfonamide], the melting point lay within 214 to 216 °C. The IC50 in data set [1] (Homo sapiens) was determined as 42.6 ± 3.4 µM. In data set [2] (Homo sapiens, A549), this molecule showed an IC50 of over 100 µM. Also, the 50% inhibitory concentration (IC50) in data set [3] (Homo sapiens, MDA-MB-231) was over 100 µM.
On to `COc1ccc(S(=O)(=O)Nc2ccc(OCc3cn(Cc4ccccc4)nn3)cc2)c2cccnc12` [7h, N-{4-[(1-Benzyl-1H-1,2,3-triazol-4-yl)methoxy]phenyl}-8-methoxyquinoline-5-sulfonamide], for which the melting point is 139 to 141 °C. For the same molecule, in data set [1] (Homo sapiens), the half-inhibitory concentration (IC50) was over 100 µM. In addition, the IC50 in data set [2] (Homo sapiens, A549) was over 100 µM. The molecule further showed a half-maximal inhibitory concentration (IC50) in data set [3] (Homo sapiens, MDA-MB-231) of over 100 µM.
For the molecule `N.N.[Cl][Pt][Cl]` [CPT, cisplatin, reference compound], the IC50 in data set [1] was 10.6 ± 0.5 µM; in data set [2], 17.3 ± 1.3 µM; in data set [3], 10.3 ± 0.7 µM; in data set [4] (WST-1, 72 h exposure), 26 ± 2 µM.
For `O=C(O)c1cn(C2CC2)c2cc(N3CCNCC3)c(F)cc2c1=O` [CPX, ciprofloxacin, reference compound], in data set [5], the “Conc.: lowest multiple of MIC with at least 70% inhibition of respiratory activity” value is listed as 32 × MIC.
Take `COc1cccc2c1C(=O)c1c(O)c3c(c(O)c1C2=O)C[C@@](O)(C(=O)CO)C[C@@H]3O[C@H]1C[C@H](N)[C@H](O)[C@H](C)O1` [DOX, doxorubicin, reference compound]: the IC50 in data set [1] (Homo sapiens) is 0.3 ± 0.02 µM; in data set [2] (Homo sapiens, A549), 1 ± 0.1 µM; in data set [3] (Homo sapiens, MDA-MB-231), 0.6 ± 0.1 µM; in data set [4] (HFF-1, WST-1, 72 h exposure), 1.4 ± 0.1 µM.
